One compound from patent US20240199572A1, “COMPOUNDS, COMPOSITIONS, AND METHODS FOR TREATING TYPE 2 DIABETES AND DEMENTIA” (THE BOARD OF TRUSTEES OF THE UNIVERSITY OF ILLINOIS, priority 2021, published 2024) can be followed below.

This test addresses T1, PPARγ (Homo sapiens, UniProt P37231).
T1 sequence (P37231 1-505): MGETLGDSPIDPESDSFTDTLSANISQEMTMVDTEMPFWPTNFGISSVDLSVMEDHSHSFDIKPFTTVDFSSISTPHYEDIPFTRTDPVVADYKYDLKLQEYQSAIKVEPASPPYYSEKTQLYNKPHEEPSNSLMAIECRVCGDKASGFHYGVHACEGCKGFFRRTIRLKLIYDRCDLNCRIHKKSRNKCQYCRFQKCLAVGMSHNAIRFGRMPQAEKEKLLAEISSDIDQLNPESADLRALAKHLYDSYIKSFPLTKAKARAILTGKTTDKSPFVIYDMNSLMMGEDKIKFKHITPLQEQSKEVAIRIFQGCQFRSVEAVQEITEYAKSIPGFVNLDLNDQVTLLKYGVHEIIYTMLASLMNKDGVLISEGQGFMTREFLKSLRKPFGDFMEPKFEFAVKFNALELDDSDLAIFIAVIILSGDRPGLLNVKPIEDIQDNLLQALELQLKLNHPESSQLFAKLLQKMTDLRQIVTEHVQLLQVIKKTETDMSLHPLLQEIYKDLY
The experiment in a line: PPARγ NHR screen, antagonist mode. The following applies: cell-based β-gal reporter assay, 10 μM. As to the method:
Receptor Binding Assays. Nuclear hormone (NHR) assays were performed by DiscoverX (Fremont, CA) on their NHR-Scan platform of cell-based protein-protein interaction assays. This platform uses a […] reporter that activates upon interaction of full-length receptor protein with steroid coactivator receptor peptides. In agonist mode, activity of CL2-57 at 10 μM was compared to maximal activity of published positive control agonists; in antagonist mode, reduction in activity with 10 μM CL2-57 from that observed at […] of published agonists was quantified.
A general note: A reporter such as luciferase makes a cellular process visible.

The structures appear in SMILES notation.

For the compound `CCOC(=O)c1cccc(NC(=O)c2sc(Cl)cc2S(=O)(=O)N(C)c2ccc(OCC)c(OCC)c2)c1` [CL2-57, ethyl 3-(5-chloro-3-(N-(3,4-diethoxyphenyl)-N-methylsulfamoyl)thiophene-2-carboxamido) benzoate], the “Functional mode at PPARγ” value is “weak antagonist”.
